Tests used:
Type in all cases: in vivo
Kochia (Kochia scoparia) [1] = experiment: Test A preemergence; details: Bassia scoparia, pre-emergence, 240 h
Procedure, shortened: (§1)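 Seeded soil received test chemicals as a preemergence directed spray, and seedlings at one to two leaves, 2–10 cm tall, received them postemergence, in a non-phytotoxic, surfactant-containing solvent mixture. Pots were held in a greenhouse for approximately 10 d, then rated for injury from 0, no effect, to 100, complete control.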

[2] = system: barnyardgrass (Echinochloa crus-galli); experiment: Test A preemergence; details: Echinochloa crus-galli, pre-emergence, 240 h
Procedure, shortened: as §1

[3] = system: giant foxtail (Setaria faberii); experiment: Test A preemergence; details: Setaria faberi, pre-emergence, 240 h
Procedure, shortened: as §1

[4] = system: pigweed (Amaranthus retroflexus); experiment: Test A preemergence; details: Amaranthus retroflexus, pre-emergence, 240 h
[5] = system: ragweed (common ragweed, Ambrosia elatior); experiment: Test A preemergence; details: Ambrosia artemisiifolia, pre-emergence, 240 h
Procedure, shortened: as §1

[6] = system: ryegrass, Italian (Italian ryegrass, Lolium multiflorum); experiment: Test A preemergence; details: Lolium multiflorum, pre-emergence, 240 h
Procedure, shortened: as §1

[7] = system: Galium (catchweed bedstraw, Galium aparine); experiment: Test A postemergence; details: Galium, post-emergence, 240 h, 125 g ai/ha, Postemergence; visual injury after approximately 10 d; 0 to 100 scale where 0 is no effect and 100 is complete control; read-out: Plant response rating, Galium
Procedure, shortened: as §1

Kochia (Kochia scoparia) [8] = experiment: Test A postemergence; details: Bassia scoparia, post-emergence, 240 h, 125 g ai/ha, Postemergence; visual injury after approximately 10 d; 0 to 100 scale where 0 is no effect and 100 is complete control; read-out: Plant response rating, Kochia
Procedure, shortened: as §1

[9] = system: barnyardgrass (Echinochloa crus-galli); experiment: Test A postemergence; details: Echinochloa crus-galli, post-emergence, 240 h, 125 g ai/ha, Postemergence; visual injury after approximately 10 d; 0 to 100 scale where 0 is no effect and 100 is complete control; read-out: Plant response rating, Barnyardgrass
Procedure, shortened: as §1

[10] = system: blackgrass (Alopecurus myosuroides); experiment: Test A postemergence; details: Alopecurus myosuroides, post-emergence, 240 h, 125 g ai/ha, Postemergence; visual injury after approximately 10 d; 0 to 100 scale where 0 is no effect and 100 is complete control; read-out: Plant response rating, Blackgrass
Procedure, shortened: as §1

corn (Zea mays) = experiment: Test A postemergence; details: Zea mays, post-emergence, 240 h, 125 g ai/ha, Postemergence; visual injury after approximately 10 d; 0 to 100 scale where 0 is no effect and 100 is complete control
Procedure, shortened: as §1

[11] = system: giant foxtail (Setaria faberii); experiment: Test A postemergence; details: Setaria faberi, post-emergence, 240 h, 125 g ai/ha, Postemergence; visual injury after approximately 10 d; 0 to 100 scale where 0 is no effect and 100 is complete control; read-out: Plant response rating, Foxtail, Giant
Procedure, shortened: as §1

[12] = system: pigweed (Amaranthus retroflexus); experiment: Test A postemergence; details: Amaranthus retroflexus, post-emergence, 240 h, 125 g ai/ha, Postemergence; visual injury after approximately 10 d; 0 to 100 scale where 0 is no effect and 100 is complete control; read-out: Plant response rating, Pigweed
Procedure, shortened: as §1

[13] = system: ragweed (common ragweed, Ambrosia elatior); experiment: Test A postemergence; details: Ambrosia artemisiifolia, post-emergence, 240 h, 125 g ai/ha, Postemergence; visual injury after approximately 10 d; 0 to 100 scale where 0 is no effect and 100 is complete control; read-out: Plant response rating, Ragweed
Procedure, shortened: as §1

[14] = system: ryegrass, Italian (Italian ryegrass, Lolium multiflorum); experiment: Test A postemergence; details: Lolium multiflorum, post-emergence, 240 h, 125 g ai/ha, Postemergence; visual injury after approximately 10 d; 0 to 100 scale where 0 is no effect and 100 is complete control; read-out: Plant response rating, Ryegrass, Italian
Procedure, shortened: as §1

[15] = system: wheat (Triticum aestivum); experiment: Test A postemergence; details: Triticum aestivum, post-emergence, 240 h, 125 g ai/ha, Postemergence; visual injury after approximately 10 d; 0 to 100 scale where 0 is no effect and 100 is complete control; read-out: Plant response rating, Wheat
Procedure, shortened: as §1

[16] = system: barnyardgrass (Echinochloa crus-galli); experiment: Test B flooded paddy test; details: Echinochloa crus-galli, Flood, 250 g ai/ha; scale of 0 to 100 where 0 is no effect and 100 is complete control; read-out: Barnyardgrass plant response rating
Procedure, shortened: (§2)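 Flooding to 3 cm over soil accompanied treatment, which consisted of adding compound to the standing water around 2-leaf plants; depth was then maintained. Visual assessment versus controls followed at 13 to 15 d (scale 0–100, 0 meaning no effect).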

[17] = system: ducksalad (Heteranthera limosa); experiment: Test B flooded paddy test; details: Heteranthera limosa, Flood, 250 g ai/ha; scale of 0 to 100 where 0 is no effect and 100 is complete control; read-out: Ducksalad plant response rating
Procedure, shortened: as §2

rice (Oryra sativa) = experiment: Test B flooded paddy test; details: Oryza sativa, Flood, 250 g ai/ha; scale of 0 to 100 where 0 is no effect and 100 is complete control; read-out: Rice plant response rating
Procedure, shortened: as §2

[18] = system: sedge, umbrella (small-flower umbrella sedge, Cyperus difformis); experiment: Test B flooded paddy test; details: Cyperus difformis, Flood, 250 g ai/ha; scale of 0 to 100 where 0 is no effect and 100 is complete control; read-out: Sedge, Umbrella plant response rating
Procedure, shortened: as §2

O=C(Nc1ccccc1F)[C@H]1C(=S)NC[C@@H]1c1ccc(Cl)cc1 (racemic) [Compound 947]
pest or weed control at 125 g/ha (Kochia (Kochia scoparia) [1]; 125 g ai/ha, Preemergence, visual injury rating after approximately 10 d, read-out: Kochia plant response rating (0 to 100 scale, 0 is no effect, 100 is complete control)): 0%
pest or weed control at 500 g/ha (Kochia (Kochia scoparia) [1]; 500 g ai/ha, preemergence, visual injury rating about 10 d after treatment, 0 to 100 scale (0 no effect, 100 complete control), read-out: Kochia plant response rating): 40%
pest or weed control at 125 g/ha ([2]; 125 g ai/ha, Preemergence, visual injury rating after approximately 10 d, read-out: Barnyardgrass plant response rating (0 to 100 scale, 0 is no effect, 100 is complete control)): 30%
pest or weed control at 500 g/ha ([2]; 500 g ai/ha, preemergence, visual injury rating about 10 d after treatment, 0 to 100 scale (0 no effect, 100 complete control), read-out: Barnyardgrass plant response rating): 60%
pest or weed control at 125 g/ha ([3]; 125 g ai/ha, Preemergence, visual injury rating after approximately 10 d, read-out: Foxtail, Giant plant response rating (0 to 100 scale, 0 is no effect, 100 is complete control)): 50%
pest or weed control at 500 g/ha ([3]; 500 g ai/ha, preemergence, visual injury rating about 10 d after treatment, 0 to 100 scale (0 no effect, 100 complete control), read-out: Foxtail, Giant plant response rating): 80%
pest or weed control at 125 g/ha ([4]; 125 g ai/ha, Preemergence, visual injury rating after approximately 10 d, read-out: Pigweed plant response rating (0 to 100 scale, 0 is no effect, 100 is complete control)): 0%
pest or weed control at 500 g/ha ([4]; 500 g ai/ha, preemergence, visual injury rating about 10 d after treatment, 0 to 100 scale (0 no effect, 100 complete control), read-out: Pigweed plant response rating): 0%
pest or weed control at 125 g/ha ([5]; 125 g ai/ha, Preemergence, visual injury rating after approximately 10 d, read-out: Ragweed plant response rating (0 to 100 scale, 0 is no effect, 100 is complete control)): 0%
pest or weed control at 500 g/ha ([5]; 500 g ai/ha, preemergence, visual injury rating about 10 d after treatment, 0 to 100 scale (0 no effect, 100 complete control), read-out: Ragweed plant response rating): 0%
pest or weed control at 125 g/ha ([6]; 125 g ai/ha, Preemergence, visual injury rating after approximately 10 d, read-out: Ryegrass, Italian plant response rating (0 to 100 scale, 0 is no effect, 100 is complete control)): 0%
pest or weed control at 500 g/ha ([6]; 500 g ai/ha, preemergence, visual injury rating about 10 d after treatment, 0 to 100 scale (0 no effect, 100 complete control), read-out: Ryegrass, Italian plant response rating): 0%
pest or weed control at 125 g/ha [7]: 0%
pest or weed control at 125 g/ha (Kochia (Kochia scoparia) [8]): 0%
pest or weed control at 125 g/ha [9]: 20%
pest or weed control at 125 g/ha [10]: 0%
Corn plant response rating (crop injury, 0 = no effect, 100 = complete kill) at 125 g/ha (corn (Zea mays)): 0%
pest or weed control at 125 g/ha [11]: 30%
pest or weed control at 125 g/ha [12]: 0%
pest or weed control at 125 g/ha [13]: 0%
pest or weed control at 125 g/ha [14]: 0%
plant injury at 125 g/ha [15]: 0%
pest or weed control at 250 g/ha [16]: 0%
pest or weed control at 250 g/ha [17]: 65%
pest or weed control at 250 g/ha (rice (Oryra sativa)): 0%
pest or weed control at 250 g/ha [18]: 0%
